What was measured:
[1] = tested on: CFTR; assay: CFTR currents in Xenopus oocytes expressing CFTR alone (control without receptor); type: cell-based; design: dose or concentration left out as unconfirmed; conditions: betamethasone valerate, bullet application, n=4
Experimental: In the present invention, oocytes are harvested from Xenopus laevis as previously described (Quick and Lester, 1994; Smith et al., 1997). Oocytes were injected with a cocktail of T3-driven hSN138 cDNA, T3-RNA polymerase and dNTP with or without T3-driven CFTR cDNA directly into the cytoplasm as previously described (Geib et al., 2001). After 2 days of incubation at 15° C., dual electrode voltage clamp was performed using 3 M KCl-filled glass microelectrodes with resistances of 1-2 MΩ. Unless otherwise specified, oocytes were voltage-clamped at a holding potential of −80 mV. During recordings, oocytes were bathed in continuously flowing (1-3 ml/min) medium containing 96 mM NaCl, 2 mM KCl, 1.8 mM CaCl2, and 5 mM HEPES, pH 7.5 (ND96 Buffer). Drugs were applied by local perfusion from a […] glass capillary tube at a distance of 0.5 mm from the oocyte. Heterologous expression of GPCRs in Xenopus oocytes has been widely used to determine the identity of signaling pathways activated by agonist stimulation. CFTR channel activity is heavily regulated by the cytosolic levels of cyclic AMP which can be increased by activation of GS-coupled adenylyl cyclase (AC). Therefore, activation of GS-coupled AC pathway is assayed by applying test compound in ND96 solution to oocytes and observing the changes of inward CFTR currents at a holding potential of −80 mV.

[2] = molecular target: T1, hSN138 (human SNORF138 receptor) (Homo sapiens, UniProt Q8TDU6); assay: Activation of CFTR currents in Xenopus oocytes expressing both hSN138 and CFTR (dual electrode voltage clamp); type: cell-based; design: dose or concentration left out as unconfirmed; conditions: betamethasone valerate, bullet application, holding potential -80 mV, n=8
T1 construct: expressed in transfected cells; host or cells: Xenopus laevis oocytes (cytoplasmic injection of T3-driven cDNA with T3 RNA polymerase)
T1 sequence (Q8TDU6 1-330): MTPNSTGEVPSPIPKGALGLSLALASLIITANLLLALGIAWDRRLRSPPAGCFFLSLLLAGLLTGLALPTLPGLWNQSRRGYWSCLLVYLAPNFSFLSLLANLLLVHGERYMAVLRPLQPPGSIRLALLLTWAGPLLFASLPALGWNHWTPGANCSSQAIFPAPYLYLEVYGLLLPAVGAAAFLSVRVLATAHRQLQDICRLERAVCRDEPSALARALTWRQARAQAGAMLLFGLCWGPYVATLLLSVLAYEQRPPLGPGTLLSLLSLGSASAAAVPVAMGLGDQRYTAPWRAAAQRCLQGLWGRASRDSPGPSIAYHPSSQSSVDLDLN
Experimental: Oocytes were injected with a cocktail of T3-driven hSN138 cDNA, T3-RNA polymerase and dNTP with or without T3-driven CFTR cDNA directly into the cytoplasm as previously described (Geib et al., 2001). After 2 days of incubation at 15° C., dual electrode voltage clamp was performed using 3 M KCl-filled glass microelectrodes with resistances of 1-2 MΩ. Unless otherwise specified, oocytes were voltage-clamped at a holding potential of −80 mV. During recordings, oocytes were bathed in continuously flowing (1-3 ml/min) medium containing 96 mM NaCl, 2 mM KCl, 1.8 mM CaCl2, and 5 mM HEPES, pH 7.5 (ND96 Buffer). Drugs were applied by local perfusion from a 10 ml glass capillary tube at a distance of 0.5 mm from the oocyte. […] CFTR channel activity is heavily regulated by the cytosolic levels of cyclic AMP which can be increased by activation of GS-coupled adenylyl cyclase (AC). Therefore, activation of GS-coupled AC pathway is assayed by applying test compound in ND96 solution to oocytes and observing the changes of inward CFTR currents at a holding potential of −80 mV.

## CCCCC(=O)O[C@]1(C(=O)CO)[C@@H](C)C[C@H]2[C@@H]3CCC4=CC(=O)C=C[C@]4(C)[C@@]3(F)[C@@H](O)C[C@@]21C [betamethasone valerate, fluoro-11b,17,21-trihydroxy-16b-methylpregna-1,4-diene-3,20-dione 17-valerate]
[1]
  changes in CFTR currents: no significant changes
[2]
  increase of CFTR currents: 9.2±1.9 nA

From patent publication US20040214237A1, “DNA encoding SNORF138 and uses thereof” (Synaptic Pharmaceutical Corporation, priority 2002, published 2004)
